Experimental findings from ChEMBL document CHEMBL1137109, “Structure-based virtual screening and biological evaluation of potent and selective ADAM12 inhibitors” (Bioorg Med Chem Lett, 2004) are described below.

As usually defined, the IC50 is the point on the concentration scale where inhibition reaches its midpoint.

The target of experiment [1] is T1, Disintegrin and metalloproteinase domain-containing protein 10 (Homo sapiens, UniProt O14672).
T1 sequence (O14672 whole entry): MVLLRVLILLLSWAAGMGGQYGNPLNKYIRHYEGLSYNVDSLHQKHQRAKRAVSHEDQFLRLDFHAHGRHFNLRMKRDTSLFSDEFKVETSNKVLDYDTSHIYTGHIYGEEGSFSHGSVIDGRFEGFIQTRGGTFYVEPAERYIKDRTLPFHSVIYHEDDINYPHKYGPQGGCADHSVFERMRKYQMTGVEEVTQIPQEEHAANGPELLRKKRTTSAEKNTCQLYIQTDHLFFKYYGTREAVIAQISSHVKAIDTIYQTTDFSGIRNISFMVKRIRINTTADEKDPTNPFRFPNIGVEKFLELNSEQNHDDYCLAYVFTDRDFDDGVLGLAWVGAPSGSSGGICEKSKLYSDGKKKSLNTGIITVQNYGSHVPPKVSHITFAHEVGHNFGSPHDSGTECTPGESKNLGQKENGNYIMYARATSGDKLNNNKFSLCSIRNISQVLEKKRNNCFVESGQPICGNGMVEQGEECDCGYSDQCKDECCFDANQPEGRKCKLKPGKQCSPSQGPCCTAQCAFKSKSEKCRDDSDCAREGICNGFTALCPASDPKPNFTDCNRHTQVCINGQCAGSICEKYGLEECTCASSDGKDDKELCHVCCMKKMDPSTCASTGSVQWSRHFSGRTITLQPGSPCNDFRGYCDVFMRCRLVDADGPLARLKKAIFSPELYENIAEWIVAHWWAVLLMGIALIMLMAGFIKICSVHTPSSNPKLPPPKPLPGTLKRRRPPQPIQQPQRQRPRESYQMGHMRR
Kind of experiment: In vitro inhibition of A disintegrin and metalloprotease domain 10 (ADAM10).

For experiment [2], the target named is T2, Disintegrin and metalloproteinase domain-containing protein 12 (Homo sapiens, UniProt O43184).
T2 sequence (O43184 whole entry): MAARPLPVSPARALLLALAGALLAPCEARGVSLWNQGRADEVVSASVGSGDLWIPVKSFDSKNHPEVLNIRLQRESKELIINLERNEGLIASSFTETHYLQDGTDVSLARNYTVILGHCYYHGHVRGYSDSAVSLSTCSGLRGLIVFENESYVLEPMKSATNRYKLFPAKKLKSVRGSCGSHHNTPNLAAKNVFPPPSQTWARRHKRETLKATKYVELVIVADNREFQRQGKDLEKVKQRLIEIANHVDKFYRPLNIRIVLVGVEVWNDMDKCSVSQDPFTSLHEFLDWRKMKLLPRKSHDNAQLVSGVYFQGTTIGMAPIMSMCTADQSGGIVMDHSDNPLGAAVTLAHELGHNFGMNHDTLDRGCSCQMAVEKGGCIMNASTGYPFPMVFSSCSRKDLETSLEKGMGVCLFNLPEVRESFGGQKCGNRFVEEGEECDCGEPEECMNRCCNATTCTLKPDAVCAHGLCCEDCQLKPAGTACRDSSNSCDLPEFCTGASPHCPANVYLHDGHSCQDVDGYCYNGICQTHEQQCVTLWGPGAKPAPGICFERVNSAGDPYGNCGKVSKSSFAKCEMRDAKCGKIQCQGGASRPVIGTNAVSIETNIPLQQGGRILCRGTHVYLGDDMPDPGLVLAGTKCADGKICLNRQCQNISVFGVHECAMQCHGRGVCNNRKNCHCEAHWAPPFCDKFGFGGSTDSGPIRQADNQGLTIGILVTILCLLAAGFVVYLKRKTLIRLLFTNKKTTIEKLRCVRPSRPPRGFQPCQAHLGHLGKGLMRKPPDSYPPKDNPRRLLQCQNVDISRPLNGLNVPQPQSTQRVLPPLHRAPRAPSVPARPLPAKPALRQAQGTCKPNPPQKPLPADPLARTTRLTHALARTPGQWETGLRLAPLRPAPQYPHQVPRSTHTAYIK
Kind of experiment: Inhibition of A disintegrin and metalloprotease domain 12 (ADAM12) binding in cell based assay.

Experiment [3] deals with Disintegrin and metalloproteinase domain-containing protein 17 (Homo sapiens, UniProt P78536). Kind of experiment: In vitro inhibition of A disintegrin and metalloprotease domain 17 (ADAM17, TACE).
Sequence of Disintegrin and metalloproteinase domain-containing protein 17 (P78536 whole entry, the tested form may be a part): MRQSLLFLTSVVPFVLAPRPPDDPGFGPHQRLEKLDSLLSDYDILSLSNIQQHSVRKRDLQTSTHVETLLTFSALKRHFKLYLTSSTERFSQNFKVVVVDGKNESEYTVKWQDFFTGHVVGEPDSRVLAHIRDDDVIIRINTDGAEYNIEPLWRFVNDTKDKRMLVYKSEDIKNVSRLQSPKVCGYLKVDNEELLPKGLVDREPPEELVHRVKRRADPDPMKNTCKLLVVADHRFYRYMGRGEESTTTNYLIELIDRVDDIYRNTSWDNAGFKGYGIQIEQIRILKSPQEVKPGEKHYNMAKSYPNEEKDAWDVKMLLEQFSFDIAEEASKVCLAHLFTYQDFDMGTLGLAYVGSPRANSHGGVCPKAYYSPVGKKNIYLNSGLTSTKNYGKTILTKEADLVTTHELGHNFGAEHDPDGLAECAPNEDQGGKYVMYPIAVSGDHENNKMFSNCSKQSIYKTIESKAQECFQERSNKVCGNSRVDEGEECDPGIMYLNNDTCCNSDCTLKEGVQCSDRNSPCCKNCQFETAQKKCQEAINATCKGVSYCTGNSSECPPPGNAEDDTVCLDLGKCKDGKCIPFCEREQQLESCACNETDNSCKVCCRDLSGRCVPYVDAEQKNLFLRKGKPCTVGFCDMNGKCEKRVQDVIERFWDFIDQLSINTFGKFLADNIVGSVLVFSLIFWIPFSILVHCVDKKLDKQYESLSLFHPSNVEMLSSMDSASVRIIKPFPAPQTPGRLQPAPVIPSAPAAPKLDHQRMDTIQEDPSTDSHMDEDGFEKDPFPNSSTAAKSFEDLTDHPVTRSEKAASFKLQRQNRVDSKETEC
Experiment [4] has as its target T3, Disintegrin and metalloproteinase domain-containing protein 9 (Homo sapiens, UniProt Q13443).
T3 sequence (Q13443 whole entry): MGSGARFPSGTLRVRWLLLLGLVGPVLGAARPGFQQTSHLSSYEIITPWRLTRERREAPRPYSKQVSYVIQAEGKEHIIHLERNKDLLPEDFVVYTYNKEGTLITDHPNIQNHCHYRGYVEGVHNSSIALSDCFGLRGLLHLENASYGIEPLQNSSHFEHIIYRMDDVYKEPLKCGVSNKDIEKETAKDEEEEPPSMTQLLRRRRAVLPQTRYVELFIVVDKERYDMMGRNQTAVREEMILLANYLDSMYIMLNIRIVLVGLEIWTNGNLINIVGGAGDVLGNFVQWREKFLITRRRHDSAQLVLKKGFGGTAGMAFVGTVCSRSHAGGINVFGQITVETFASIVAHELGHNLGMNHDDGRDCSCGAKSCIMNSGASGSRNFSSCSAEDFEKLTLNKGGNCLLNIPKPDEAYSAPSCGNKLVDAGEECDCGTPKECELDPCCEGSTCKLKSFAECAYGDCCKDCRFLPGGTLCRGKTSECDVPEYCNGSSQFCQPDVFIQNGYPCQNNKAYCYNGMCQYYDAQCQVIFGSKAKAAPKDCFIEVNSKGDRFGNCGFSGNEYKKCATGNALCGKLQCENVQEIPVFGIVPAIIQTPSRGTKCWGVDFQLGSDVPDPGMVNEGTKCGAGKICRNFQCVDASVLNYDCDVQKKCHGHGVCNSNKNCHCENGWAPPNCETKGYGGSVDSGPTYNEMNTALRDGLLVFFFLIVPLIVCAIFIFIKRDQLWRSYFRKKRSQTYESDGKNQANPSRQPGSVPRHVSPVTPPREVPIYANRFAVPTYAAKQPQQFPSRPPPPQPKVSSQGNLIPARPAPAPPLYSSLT
The experiment is described as follows: In vitro inhibition of A disintegrin and metalloprotease domain 9 (ADAM9).

Regarding `CC(C)C(NC(=O)/C(=C\c1ccccc1F)NC(=O)c1ccccc1)C(=O)O` (stereo unspecified), the results for the IC50 in experiment [1] and in experiment [2] were over 10500 nM and 40.5 nM, respectively.
Compound `CC(NC(=O)/C(=C\c1ccc(Br)cc1)NC(=O)c1ccc(Br)o1)C(=O)O` (stereo unspecified) yielded an IC50 in experiment [2] of 24.8 nM.
Turning to `CC(NC(=O)/C(=C\c1ccco1)NC(=O)c1ccco1)C(=O)O` (stereo unspecified), the IC50 in experiment [1] came to 10500 nM; in experiment [2] it was 42.3 nM.
As for `O=C(O)CNC(=O)/C(=C\c1cccc(Br)c1)NC(=O)c1ccco1`, the IC50 is over 10500 nM in experiment [1] and 16.7 nM in experiment [2].
As to `CNC(=O)[C@H](Cc1c[nH]c2ccccc12)NC(=O)[C@@H](CC(=O)NO)CC(C)C` [ILOMASTAT], the IC50 in experiment [1] came to 8.1 nM; in experiment [3] it was 7.5 nM; in experiment [2], 5.93 nM; in experiment [4], 1 nM.
